Biological target: T1, human leukocyte elastase (HLE) (Homo sapiens, UniProt P08246)
T1 sequence (P08246 30-267): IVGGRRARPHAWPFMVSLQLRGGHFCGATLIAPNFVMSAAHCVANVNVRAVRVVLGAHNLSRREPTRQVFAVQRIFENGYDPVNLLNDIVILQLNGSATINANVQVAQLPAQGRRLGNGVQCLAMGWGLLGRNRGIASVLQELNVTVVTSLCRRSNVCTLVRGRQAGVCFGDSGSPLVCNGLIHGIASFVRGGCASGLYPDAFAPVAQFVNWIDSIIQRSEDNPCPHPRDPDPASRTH
Experiment: Inhibition of human leukocyte elastase (HLE) on methoxy-succinyl-alanyl-alanyl-prolyl-valine-p-nitroanilide
Assay type: biochemical
Settings: dissociation constant of the inhibitor-HLE complex
Description: The potency of a Compound to act as an inhibitor of human leukocyte elastase (HLE) on the low molecular weight peptide substrate methoxy-succinyl-alanyl-alanyl-prolyl-valine-p-nitroanilide is determined as described in U.S. Pat. No. 4,910,190. The potency of an inhibitor is evaluated by obtaining a kinetic determination of the dissociation constant, Ki, of the complex formed from the interaction of the inhibitor with HLE. If a Compound is found to be a "slow-binding" inhibitor of HLE, special methods of analysis to accurately determine Ki values for the inhibition of HLE are carried out as described in U.S. Pat. 4,910,190.

Compound: CC(C)C(NC(=O)Cn1c(-c2ccccc2)cc2c([nH]c3c(C=O)cccc32)c1=O)C(=O)C(F)(F)F (stereo not shown) [Example 2, 2-(8-Formyl-1-oxo-3-phenyl-1,2-dihydropyrido[3,4-b]indol2-yl)-N-(3,3,3-trifluoro-1-isopropyl-2-oxopropyl)acetamide]
- Ki: 27 nM

From patent US5405852A, “Amide derivatives” (Zeneca Limited, priority 1992, dated 1995)
